These results are taken from PubChem BioAssay (NCI).

What all share (experiment): NCI-60 cell line screen, 48 h
The test system of test [1] is XF 498 CNS.
In test [2] the test system is KM20L2 colon.
The test system of test [3] is RXF-631 renal.
Test [4] relates to SNB-78 CNS.
Test [5] deals with DMS 273 small cell lung.
Test [6] relates to HOP-18 NSCLC.

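Protocol summary: plate cells (96-well), add compound at 5 concentrations, incubate 48 h, interpolate endpoints linearly. TGI: concentration producing complete growth inhibition.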 Some results are limits rather than exact numbers.

Regarding `COc1cc(C[S+]2CCCC2)c(SC)cc1C[S+]1CCCC1`, the TGI in test [1], in test [2], in test [3] and in test [4] was > 100 µM throughout.
With `O=C(c1ccc(O)cc1)C1c2c3c(cc(O)c2C(c2ccc(O)cc2)C1c1cc(O)cc(O)c1)OC(c1ccc(O)cc1)C3c1cc2c(cc1O)OC(c1ccc(O)cc1)C2c1cc(O)cc(O)c1` (configuration not stated), the TGI in test [2] and in test [5] was > 12.5 µM throughout.
In the case of `COc1ccc(C2S/C(=C\c3ccccc3O)C(=O)N2NC(=O)Cc2ccccc2)cc1` (configuration not stated), the TGI in test [6] and in test [5] was > 100 µM in each case.
For `C[C@]12C=CC(=O)C=C1CC[C@H]1[C@@H]3C[C@@H](O)[C@](O)(C(=O)CO)[C@@]3(C)C[C@H](O)[C@@]12F`, the TGI in test [1], in test [2], in test [3], in test [5] and in test [4] was > 100 µM throughout.
In the case of `CNC(=S)N(C)C(=S)Nn1c(=O)c(C)nn(C)c1=S`, the TGI in test [2], in test [6], in test [5] and in test [4] was > 100 µM each time.
